Assay results published in ChEMBL document CHEMBL5465560, “Selectivity Literature for EUbOPEN Chemogenomic Library” (2024).
Values belong to the compound of their own block, whether it stands above or below them.

Experiments:
[1] = target: Receptor tyrosine-protein kinase erbB-4 (Homo sapiens, UniProt Q15303); assay: Selectivity interaction (Upstate Kinase Profiler service (Millipore)) EUB0000056c ERBB4; conditions: at 1 µM
[2] = target: Cyclin-dependent kinase 16 (Homo sapiens) (UniProt Q00536); conditions: at 10 µM
Cyclin-dependent kinase 16 (Homo sapiens), sequence (Q00536 whole entry): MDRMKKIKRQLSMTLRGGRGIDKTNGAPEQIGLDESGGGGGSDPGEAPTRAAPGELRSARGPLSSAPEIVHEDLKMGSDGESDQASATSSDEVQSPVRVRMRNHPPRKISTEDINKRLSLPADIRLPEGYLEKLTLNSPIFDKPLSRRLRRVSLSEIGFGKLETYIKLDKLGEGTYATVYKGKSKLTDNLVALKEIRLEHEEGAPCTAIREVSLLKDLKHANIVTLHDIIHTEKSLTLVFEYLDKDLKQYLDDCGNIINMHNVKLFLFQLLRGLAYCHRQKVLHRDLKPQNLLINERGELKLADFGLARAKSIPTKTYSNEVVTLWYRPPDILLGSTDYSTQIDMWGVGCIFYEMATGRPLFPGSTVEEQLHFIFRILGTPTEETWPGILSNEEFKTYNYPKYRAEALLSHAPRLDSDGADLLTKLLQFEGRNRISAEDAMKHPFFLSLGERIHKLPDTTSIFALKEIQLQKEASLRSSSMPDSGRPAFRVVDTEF

[3] = target: T1, Eukaryotic elongation factor 2 kinase (Homo sapiens) (UniProt O00418); assay: Selectivity interaction (ActivX KiNativ screen (kinase selectivity in THP-1 cell lysates)) EUB0000639a EEF2K; type: subcellular; conditions: lysate
T1 sequence (whole entry): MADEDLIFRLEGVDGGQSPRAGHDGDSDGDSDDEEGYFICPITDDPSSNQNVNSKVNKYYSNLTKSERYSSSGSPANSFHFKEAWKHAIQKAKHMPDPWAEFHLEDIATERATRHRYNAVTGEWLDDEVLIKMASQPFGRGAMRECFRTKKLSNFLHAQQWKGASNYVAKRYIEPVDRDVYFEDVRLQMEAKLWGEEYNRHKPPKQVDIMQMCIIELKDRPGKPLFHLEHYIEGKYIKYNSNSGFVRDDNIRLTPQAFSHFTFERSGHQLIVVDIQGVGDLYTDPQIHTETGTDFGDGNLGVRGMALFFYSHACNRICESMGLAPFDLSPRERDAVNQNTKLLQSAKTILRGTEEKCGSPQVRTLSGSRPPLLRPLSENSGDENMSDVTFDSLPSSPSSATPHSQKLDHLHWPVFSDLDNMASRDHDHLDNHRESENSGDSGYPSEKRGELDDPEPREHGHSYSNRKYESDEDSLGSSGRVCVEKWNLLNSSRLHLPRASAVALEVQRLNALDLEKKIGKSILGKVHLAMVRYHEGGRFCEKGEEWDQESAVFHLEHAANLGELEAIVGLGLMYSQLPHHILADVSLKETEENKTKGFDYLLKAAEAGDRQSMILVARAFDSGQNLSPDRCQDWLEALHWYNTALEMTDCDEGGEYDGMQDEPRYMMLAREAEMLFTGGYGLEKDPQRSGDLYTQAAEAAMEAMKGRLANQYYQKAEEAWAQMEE

[4] = target: T2, Serine/threonine-protein kinase ULK1 (Homo sapiens) (UniProt O75385); assay: Selectivity interaction (Kinase panel (DSF assay)) EUB0001558a ULK1
T2 sequence (whole entry): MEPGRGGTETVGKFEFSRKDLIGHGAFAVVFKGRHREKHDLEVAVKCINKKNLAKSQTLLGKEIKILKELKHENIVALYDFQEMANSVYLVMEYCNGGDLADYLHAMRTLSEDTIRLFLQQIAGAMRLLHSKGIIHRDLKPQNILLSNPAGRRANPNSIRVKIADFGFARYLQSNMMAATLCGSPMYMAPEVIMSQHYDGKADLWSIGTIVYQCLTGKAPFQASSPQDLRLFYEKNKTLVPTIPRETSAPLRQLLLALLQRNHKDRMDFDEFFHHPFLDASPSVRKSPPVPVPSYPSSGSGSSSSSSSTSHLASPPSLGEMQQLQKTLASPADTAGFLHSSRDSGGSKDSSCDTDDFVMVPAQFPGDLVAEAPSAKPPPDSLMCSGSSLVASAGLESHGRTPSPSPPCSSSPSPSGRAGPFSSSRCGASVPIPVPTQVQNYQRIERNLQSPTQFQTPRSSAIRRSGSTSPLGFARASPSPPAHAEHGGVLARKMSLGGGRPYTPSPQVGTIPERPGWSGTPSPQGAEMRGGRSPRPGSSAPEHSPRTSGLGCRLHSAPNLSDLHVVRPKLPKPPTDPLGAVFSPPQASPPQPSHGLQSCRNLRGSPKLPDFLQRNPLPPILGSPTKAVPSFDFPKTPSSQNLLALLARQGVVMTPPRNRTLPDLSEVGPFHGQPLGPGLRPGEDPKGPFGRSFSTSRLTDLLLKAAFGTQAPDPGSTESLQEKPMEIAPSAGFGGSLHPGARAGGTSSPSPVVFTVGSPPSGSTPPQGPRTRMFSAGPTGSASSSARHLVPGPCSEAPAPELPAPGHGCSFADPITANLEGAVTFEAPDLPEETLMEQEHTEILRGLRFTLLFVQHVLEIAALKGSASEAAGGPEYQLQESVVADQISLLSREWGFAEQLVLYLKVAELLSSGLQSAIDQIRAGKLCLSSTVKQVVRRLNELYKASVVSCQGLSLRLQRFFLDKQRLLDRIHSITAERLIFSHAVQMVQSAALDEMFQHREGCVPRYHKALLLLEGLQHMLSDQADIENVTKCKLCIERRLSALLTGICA

[5] = target: T3, Tyrosine-protein kinase Mer (Homo sapiens) (UniProt Q12866); assay: Selectivity interaction (Kinase panel (DSF assay)) EUB0001558a MERTK
T3 sequence (whole entry): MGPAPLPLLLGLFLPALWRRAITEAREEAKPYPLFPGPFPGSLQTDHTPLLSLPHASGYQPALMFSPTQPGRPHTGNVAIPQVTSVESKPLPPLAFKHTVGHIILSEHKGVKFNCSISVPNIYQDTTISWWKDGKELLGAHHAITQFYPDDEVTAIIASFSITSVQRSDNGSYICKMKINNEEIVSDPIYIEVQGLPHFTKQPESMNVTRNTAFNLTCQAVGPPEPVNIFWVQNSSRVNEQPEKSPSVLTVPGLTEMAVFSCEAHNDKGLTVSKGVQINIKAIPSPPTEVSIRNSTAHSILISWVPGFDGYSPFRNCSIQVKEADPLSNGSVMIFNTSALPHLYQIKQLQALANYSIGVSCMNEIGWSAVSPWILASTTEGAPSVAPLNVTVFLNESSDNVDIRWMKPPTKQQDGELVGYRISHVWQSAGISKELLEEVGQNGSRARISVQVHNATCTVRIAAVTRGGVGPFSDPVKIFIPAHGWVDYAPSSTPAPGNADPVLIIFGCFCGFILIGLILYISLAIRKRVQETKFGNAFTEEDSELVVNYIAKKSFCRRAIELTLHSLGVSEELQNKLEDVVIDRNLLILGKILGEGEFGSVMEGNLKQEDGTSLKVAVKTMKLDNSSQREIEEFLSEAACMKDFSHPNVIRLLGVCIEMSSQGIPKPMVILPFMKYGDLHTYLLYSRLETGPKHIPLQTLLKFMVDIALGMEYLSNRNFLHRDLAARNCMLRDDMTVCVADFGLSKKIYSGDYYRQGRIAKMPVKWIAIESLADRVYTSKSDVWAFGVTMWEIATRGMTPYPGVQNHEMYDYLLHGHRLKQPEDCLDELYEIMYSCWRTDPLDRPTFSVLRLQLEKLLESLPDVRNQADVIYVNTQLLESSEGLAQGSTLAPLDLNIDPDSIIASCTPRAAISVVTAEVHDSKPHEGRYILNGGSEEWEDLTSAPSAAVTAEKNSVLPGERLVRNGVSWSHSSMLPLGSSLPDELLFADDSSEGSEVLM

Receptor tyrosine-protein kinase erbB-4, sequence (Q15303 whole entry): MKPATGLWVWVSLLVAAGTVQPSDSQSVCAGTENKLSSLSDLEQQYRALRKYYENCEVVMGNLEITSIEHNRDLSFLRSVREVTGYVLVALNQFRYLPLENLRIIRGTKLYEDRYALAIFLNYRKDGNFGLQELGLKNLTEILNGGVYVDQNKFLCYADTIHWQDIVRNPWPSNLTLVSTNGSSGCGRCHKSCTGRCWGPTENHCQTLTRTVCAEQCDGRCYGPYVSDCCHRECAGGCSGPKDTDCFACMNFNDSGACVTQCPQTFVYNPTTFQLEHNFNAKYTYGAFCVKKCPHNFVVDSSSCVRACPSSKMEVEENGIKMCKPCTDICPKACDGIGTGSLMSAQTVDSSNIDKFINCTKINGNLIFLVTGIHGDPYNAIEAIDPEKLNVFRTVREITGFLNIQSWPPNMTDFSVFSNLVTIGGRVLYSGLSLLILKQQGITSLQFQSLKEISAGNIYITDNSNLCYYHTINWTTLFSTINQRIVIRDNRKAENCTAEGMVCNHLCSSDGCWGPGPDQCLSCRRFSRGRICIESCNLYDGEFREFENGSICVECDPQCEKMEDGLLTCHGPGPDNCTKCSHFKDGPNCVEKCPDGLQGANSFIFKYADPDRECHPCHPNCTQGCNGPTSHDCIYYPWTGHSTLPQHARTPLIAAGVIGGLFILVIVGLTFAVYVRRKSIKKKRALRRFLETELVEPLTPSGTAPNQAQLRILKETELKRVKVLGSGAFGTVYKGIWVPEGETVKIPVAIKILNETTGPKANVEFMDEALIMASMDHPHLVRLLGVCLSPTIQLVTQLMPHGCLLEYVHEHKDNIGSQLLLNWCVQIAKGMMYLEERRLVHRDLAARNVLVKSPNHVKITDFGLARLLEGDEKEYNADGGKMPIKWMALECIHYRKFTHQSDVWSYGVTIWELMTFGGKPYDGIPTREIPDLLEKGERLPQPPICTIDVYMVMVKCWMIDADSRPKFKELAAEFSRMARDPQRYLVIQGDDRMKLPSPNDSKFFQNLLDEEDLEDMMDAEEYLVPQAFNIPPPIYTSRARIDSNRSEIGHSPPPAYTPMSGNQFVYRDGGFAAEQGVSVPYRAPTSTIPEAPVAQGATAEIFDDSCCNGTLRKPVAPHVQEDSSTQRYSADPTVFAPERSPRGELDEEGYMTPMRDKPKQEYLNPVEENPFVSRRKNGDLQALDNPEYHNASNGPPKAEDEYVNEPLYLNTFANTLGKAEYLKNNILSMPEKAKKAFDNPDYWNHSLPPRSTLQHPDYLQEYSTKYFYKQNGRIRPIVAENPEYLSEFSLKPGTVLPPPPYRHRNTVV

% of inhibition [1]: 12%
Compound: Cc1ccc(-c2ccc3c(ccc4sc5c(c43)NC[C@@H](C)NC5=O)n2)cn1

% of control [2]: 100%
Compound: CCN(CC)CCCCNc1ncc2cc(-c3cc(OC)cc(OC)c3)c(NC(=O)NC(C)(C)C)nc2n1

% of inhibition ([3]; at 0.01 µM): 4.3%
% of inhibition ([3]; at 0.04 µM): -14.7%
% of inhibition ([3]; at 0.2 µM): 2.9%
% of inhibition ([3]; at 1 µM): -15.8%
% of inhibition ([3]; at 5 µM): -3.6%
Compound: CC[C@@H]1[C@H](F)C(=O)N[C@@H]1COc1nccc2cc(C(N)=O)c(OC)cc12 [ZIMLOVISERTIB]

Compound: CC(C)(O)[C@H](F)CN1Cc2cc(NC(=O)c3cnn4cccnc34)c(N3CCOCC3)cc2C1=O
dTM [4]: 0.5 K
dTM [5]: 1.7 K
